Source: the NIST ThermoML archive (doi:10.1016/j.jct.2015.04.027)
± gives the expanded uncertainty stated by the source.

Columns and labels:
[1] = 100 kPa, Liquid; for viscosity: Falling or rolling sphere viscometry; for mass density: Vibrating tube method
[2] = xn = mol fraction of the nth substance listed; conditions: 100 kPa, Liquid, x2 = 0; for viscosity: Falling or rolling sphere viscometry; for mass density: Vibrating tube method

**Q.** With `CN(C)C(=[NH2+])N(C)C.c1c[n-]cn1` [1,1,3,3-tetramethylguanidinium imidazol-1-ide] as the compound, how does the viscosity ([1]; 293.15 K) read?
**A.** Its viscosity is 8.952 ± 0.2 mPa·s.

**Q.** And the mass density ([1]; 293.15 K)?
**A.** The mass density was 997.25 ± 0.25 kg/m3.

**Q.** And the viscosity ([1]; 298.15 K)?
**A.** The viscosity was 7.287 ± 0.16 mPa·s.

**Q.** And the mass density ([1]; 298.15 K)?
**A.** Its mass density is 992.8 ± 0.25 kg/m3.

**Q.** What about the viscosity ([1]; 303.15 K) of the same compound?
**A.** Its viscosity is 6.044 ± 0.13 mPa·s.

**Q.** What about the mass density ([1]; 303.15 K) of the same compound?
**A.** Its mass density is 988.35 ± 0.25 kg/m3.

**Q.** And the viscosity ([1]; 308.15 K)?
**A.** Its viscosity is 5.097 ± 0.11 mPa·s.

**Q.** And the mass density ([1]; 308.15 K)?
**A.** Its mass density is 983.9 ± 0.25 kg/m3.

**Q.** What about the viscosity ([1]; 313.15 K) of the same compound?
**A.** Its viscosity is 4.358 ± 0.096 mPa·s.

**Q.** What about the mass density ([1]; 313.15 K) of the same compound?
**A.** The mass density was 979.46 ± 0.25 kg/m3.

**Q.** With `CCCCO` [butan-1-ol] as the compound, how does the viscosity ([1]; 293.15 K) read?
**A.** Its viscosity is 2.918 ± 0.062 mPa·s.

**Q.** What about the mass density ([1]; 293.15 K) of the same compound?
**A.** Its mass density is 809.72 ± 0.16 kg/m3.

**Q.** What about the viscosity ([1]; 298.15 K) of the same compound?
**A.** The viscosity was 2.566 ± 0.055 mPa·s.

**Q.** And the mass density ([1]; 298.15 K)?
**A.** Its mass density is 805.92 ± 0.16 kg/m3.

**Q.** And the viscosity ([1]; 303.15 K)?
**A.** Its viscosity is 2.272 ± 0.049 mPa·s.

**Q.** And the mass density ([1]; 303.15 K)?
**A.** Its mass density is 802.08 ± 0.16 kg/m3.

**Q.** What about the viscosity ([1]; 308.15 K) of the same compound?
**A.** Its viscosity is 2.024 ± 0.043 mPa·s.

**Q.** What about the mass density ([1]; 308.15 K) of the same compound?
**A.** The mass density was 798.21 ± 0.16 kg/m3.

**Q.** And the viscosity ([1]; 313.15 K)?
**A.** Its viscosity is 1.81 ± 0.039 mPa·s.

**Q.** And the mass density ([1]; 313.15 K)?
**A.** The mass density was 794.3 ± 0.17 kg/m3.

**Q.** Which viscosity ([2]; 293.15 K) does the source give for `CCCCO` [butan-1-ol] + CN(C)C(=[NH2+])N(C)C.c1c[n-]cn1 here?
**A.** Its viscosity is 2.918 ± 0.062 mPa·s.

**Q.** What about the mass density ([2]; 293.15 K) of the same compound?
**A.** The mass density was 809.72 ± 0.16 kg/m3.

**Q.** What about the viscosity ([2]; 298.15 K) of the same compound?
**A.** The viscosity was 2.566 ± 0.055 mPa·s.

**Q.** What about the mass density ([2]; 298.15 K) of the same compound?
**A.** The mass density was 805.92 ± 0.16 kg/m3.

**Q.** What about the viscosity ([2]; 303.15 K) of the same compound?
**A.** Its viscosity is 2.272 ± 0.049 mPa·s.

**Q.** What about the mass density ([2]; 303.15 K) of the same compound?
**A.** Its mass density is 802.08 ± 0.16 kg/m3.

**Q.** What about the viscosity ([2]; 308.15 K) of the same compound?
**A.** Its viscosity is 2.024 ± 0.043 mPa·s.

**Q.** And the mass density ([2]; 308.15 K)?
**A.** The mass density was 798.21 ± 0.16 kg/m3.

**Q.** And the viscosity ([2]; 313.15 K)?
**A.** The viscosity was 1.81 ± 0.039 mPa·s.

**Q.** And the mass density ([2]; 313.15 K)?
**A.** Its mass density is 794.3 ± 0.17 kg/m3.

**Q.** With `CCO` [ethanol] as the compound, how does the viscosity ([1]; 293.15 K) read?
**A.** Its viscosity is 1.186 ± 0.025 mPa·s.

**Q.** And the mass density ([1]; 293.15 K)?
**A.** The mass density was 789.51 ± 0.17 kg/m3.

**Q.** And the viscosity ([1]; 298.15 K)?
**A.** Its viscosity is 1.083 ± 0.023 mPa·s.

**Q.** And the mass density ([1]; 298.15 K)?
**A.** The mass density was 785.4 ± 0.17 kg/m3.

**Q.** What about the viscosity ([1]; 303.15 K) of the same compound?
**A.** Its viscosity is 0.987 ± 0.021 mPa·s.

**Q.** And the mass density ([1]; 303.15 K)?
**A.** The mass density was 780.83 ± 0.17 kg/m3.

**Q.** What about the viscosity ([1]; 308.15 K) of the same compound?
**A.** Its viscosity is 0.903 ± 0.019 mPa·s.

**Q.** What about the mass density ([1]; 308.15 K) of the same compound?
**A.** The mass density was 776.48 ± 0.17 kg/m3.

**Q.** And the viscosity ([1]; 313.15 K)?
**A.** Its viscosity is 0.829 ± 0.018 mPa·s.

**Q.** What about the mass density ([1]; 313.15 K) of the same compound?
**A.** Its mass density is 772.15 ± 0.17 kg/m3.

**Q.** Which viscosity ([2]; 293.15 K) does the source give for `CCO` [ethanol] + CN(C)C(=[NH2+])N(C)C.c1c[n-]cn1 here?
**A.** Its viscosity is 1.186 ± 0.025 mPa·s.

**Q.** And the mass density ([2]; 293.15 K)?
**A.** Its mass density is 789.51 ± 0.17 kg/m3.

**Q.** What about the viscosity ([2]; 298.15 K) of the same compound?
**A.** Its viscosity is 1.083 ± 0.023 mPa·s.

**Q.** What about the mass density ([2]; 298.15 K) of the same compound?
**A.** Its mass density is 785.4 ± 0.17 kg/m3.

**Q.** And the viscosity ([2]; 303.15 K)?
**A.** The viscosity was 0.987 ± 0.021 mPa·s.

**Q.** What about the mass density ([2]; 303.15 K) of the same compound?
**A.** Its mass density is 780.83 ± 0.17 kg/m3.

**Q.** What about the viscosity ([2]; 308.15 K) of the same compound?
**A.** The viscosity was 0.903 ± 0.019 mPa·s.

**Q.** What about the mass density ([2]; 308.15 K) of the same compound?
**A.** Its mass density is 776.48 ± 0.17 kg/m3.

**Q.** And the viscosity ([2]; 313.15 K)?
**A.** Its viscosity is 0.829 ± 0.018 mPa·s.

**Q.** And the mass density ([2]; 313.15 K)?
**A.** The mass density was 772.15 ± 0.17 kg/m3.

**Q.** For `CO` [methanol], which viscosity ([1]; 293.15 K) is on record?
**A.** Its viscosity is 0.597 ± 0.013 mPa·s.

**Q.** What about the mass density ([1]; 293.15 K) of the same compound?
**A.** Its mass density is 791.35 ± 0.17 kg/m3.

**Q.** And the viscosity ([1]; 298.15 K)?
**A.** The viscosity was 0.559 ± 0.012 mPa·s.

**Q.** What about the mass density ([1]; 298.15 K) of the same compound?
**A.** Its mass density is 786.67 ± 0.18 kg/m3.

**Q.** And the viscosity ([1]; 303.15 K)?
**A.** The viscosity was 0.518 ± 0.011 mPa·s.

**Q.** What about the mass density ([1]; 303.15 K) of the same compound?
**A.** Its mass density is 781.94 ± 0.18 kg/m3.

**Q.** And the viscosity ([1]; 308.15 K)?
**A.** Its viscosity is 0.493 ± 0.011 mPa·s.

**Q.** And the mass density ([1]; 308.15 K)?
**A.** Its mass density is 777.2 ± 0.18 kg/m3.

**Q.** What about the viscosity ([1]; 313.15 K) of the same compound?
**A.** The viscosity was 0.466 ± 0.01 mPa·s.

**Q.** What about the mass density ([1]; 313.15 K) of the same compound?
**A.** Its mass density is 772.42 ± 0.18 kg/m3.

**Q.** Which results are given for `CO` [methanol] + CN(C)C(=[NH2+])N(C)C.c1c[n-]cn1?
**A.** viscosity ([2]; 293.15 K): 0.597 ± 0.013 mPa·s; mass density ([2]; 293.15 K): 791.35 ± 0.17 kg/m3; viscosity ([2]; 298.15 K): 0.559 ± 0.012 mPa·s; mass density ([2]; 298.15 K): 786.67 ± 0.18 kg/m3; viscosity ([2]; 303.15 K): 0.518 ± 0.011 mPa·s; mass density ([2]; 303.15 K): 781.94 ± 0.18 kg/m3; viscosity ([2]; 308.15 K): 0.493 ± 0.011 mPa·s; mass density ([2]; 308.15 K): 777.2 ± 0.18 kg/m3; viscosity ([2]; 313.15 K): 0.466 ± 0.01 mPa·s; mass density ([2]; 313.15 K): 772.42 ± 0.18 kg/m3

**Q.** Which viscosity ([1]; 293.15 K) does the source give for `CCCO` [propan-1-ol] here?
**A.** The viscosity was 2.217 ± 0.047 mPa·s.

**Q.** And the mass density ([1]; 293.15 K)?
**A.** The mass density was 803.75 ± 0.16 kg/m3.

**Q.** And the viscosity ([1]; 298.15 K)?
**A.** Its viscosity is 1.955 ± 0.042 mPa·s.

**Q.** What about the mass density ([1]; 298.15 K) of the same compound?
**A.** The mass density was 799.71 ± 0.17 kg/m3.

**Q.** And the viscosity ([1]; 303.15 K)?
**A.** The viscosity was 1.736 ± 0.037 mPa·s.

**Q.** What about the mass density ([1]; 303.15 K) of the same compound?
**A.** Its mass density is 795.65 ± 0.17 kg/m3.

**Q.** What about the viscosity ([1]; 308.15 K) of the same compound?
**A.** The viscosity was 1.55 ± 0.033 mPa·s.

**Q.** And the mass density ([1]; 308.15 K)?
**A.** The mass density was 791.56 ± 0.17 kg/m3.

**Q.** And the viscosity ([1]; 313.15 K)?
**A.** Its viscosity is 1.389 ± 0.03 mPa·s.

**Q.** What about the mass density ([1]; 313.15 K) of the same compound?
**A.** The mass density was 787.42 ± 0.17 kg/m3.

**Q.** With `CCCO` [propan-1-ol] + CN(C)C(=[NH2+])N(C)C.c1c[n-]cn1 as the compound, how does the viscosity ([2]; 293.15 K) read?
**A.** The viscosity was 2.217 ± 0.047 mPa·s.

**Q.** What about the mass density ([2]; 293.15 K) of the same compound?
**A.** Its mass density is 803.75 ± 0.16 kg/m3.

**Q.** And the viscosity ([2]; 298.15 K)?
**A.** The viscosity was 1.955 ± 0.042 mPa·s.

**Q.** And the mass density ([2]; 298.15 K)?
**A.** Its mass density is 799.71 ± 0.17 kg/m3.

**Q.** What about the viscosity ([2]; 303.15 K) of the same compound?
**A.** The viscosity was 1.736 ± 0.037 mPa·s.

**Q.** What about the mass density ([2]; 303.15 K) of the same compound?
**A.** Its mass density is 795.65 ± 0.17 kg/m3.

**Q.** And the viscosity ([2]; 308.15 K)?
**A.** The viscosity was 1.55 ± 0.033 mPa·s.

**Q.** And the mass density ([2]; 308.15 K)?
**A.** The mass density was 791.56 ± 0.17 kg/m3.

**Q.** And the viscosity ([2]; 313.15 K)?
**A.** Its viscosity is 1.389 ± 0.03 mPa·s.

**Q.** And the mass density ([2]; 313.15 K)?
**A.** The mass density was 787.42 ± 0.17 kg/m3.
